The CheMixHub drug solubility set

Assay: xn = mol fraction of the nth substance listed, in the solute-free solvent

Cc1c(Br)c(=O)n(C2CCCC2)c2nc(Cl)ncc12 + CC1=CC(=O)CC(C)(C)C1 + CC(C)O
solubility (g/100 g solution)
Settings | 278.15 K | 283.15 K | 288.15 K | 293.15 K | 298.15 K | 303.15 K | 308.15 K | 313.15 K | 318.15 K | 323.15 K
x2 = 0.1 | 0.104 | 0.147 | 0.203 | 0.285 | 0.388 | 0.522 | 0.702 | 0.929 | 1.27 | 1.59
x2 = 0.2 | 0.167 | 0.234 | 0.327 | 0.45 | 0.61 | 0.819 | 1.09 | 1.43 | 1.87 | 2.42
x2 = 0.3 | 0.232 | 0.325 | 0.45 | 0.614 | 0.828 | 1.11 | 1.47 | 1.92 | 2.49 | 3.21
x2 = 0.4 | 0.288 | 0.401 | 0.554 | 0.752 | 1.02 | 1.35 | 1.79 | 2.33 | 3.02 | 3.87
x2 = 0.5 | 0.332 | 0.458 | 0.633 | 0.862 | 1.16 | 1.54 | 2.03 | 2.65 | 3.43 | 4.39
x2 = 0.6 | 0.364 | 0.506 | 0.697 | 0.947 | 1.27 | 1.69 | 2.23 | 2.9 | 3.75 | 4.8
x2 = 0.7 | 0.391 | 0.543 | 0.746 | 1.01 | 1.37 | 1.82 | 2.39 | 3.12 | 4.02 | 5.14
x2 = 0.8 | 0.416 | 0.579 | 0.796 | 1.08 | 1.45 | 1.93 | 2.54 | 3.32 | 4.28 | 5.48
x2 = 0.9 | 0.441 | 0.613 | 0.844 | 1.15 | 1.54 | 2.05 | 2.7 | 3.52 | 4.55 | 5.82

Cc1ncc(CO)c(CO)c1O.Cl + O + CCCO
solubility (g/100 g solution)
Settings | 278.15 K | 283.15 K | 288.15 K | 293.15 K | 298.15 K | 303.15 K | 308.15 K | 313.15 K
x2 = 0.3 | 0.893 | 1.08 | 1.2 | 1.42 | 1.8 | 2.05 | 2.29 | 2.62
x2 = 0.4 | 1.59 | 1.9 | 2.23 | 2.65 | 3.25 | 3.59 | 4.15 | 4.99
x2 = 0.5 | 2.6 | 3.07 | 3.42 | 4.1 | 5 | 5.68 | 6.43 | 7.5
x2 = 0.6 | 3.83 | 4.45 | 4.91 | 6.02 | 7.03 | 8.29 | 9.47 | 11.3
x2 = 0.7 | 5.37 | 6.24 | 6.84 | 8.27 | 9.8 | 11.7 | 13.3 | 15.1
x2 = 0.8 | 6.99 | 8.36 | 9.28 | 10.7 | 12.8 | 15.4 | 17.8 | 19.6
x2 = 0.9 | 8.57 | 10.3 | 11.9 | 13.8 | 16 | 19 | 21.1 | 24.1

Nc1nc2ccc(OC(F)(F)F)cc2s1 + CCCO + O
solubility (g/100 g solution)
Settings | 278.15 K | 283.15 K | 288.15 K | 293.15 K | 298.15 K | 303.15 K | 308.15 K | 313.15 K | 318.15 K | 323.15 K
x2 = 0.1138 | 11.3 | 12.7 | 13.8 | 14.7 | 15.4 | 16.1 | 16.7 | 17.1 | 17.7 | 18.2
x2 = 0.1666 | 19.6 | 21.1 | 22.3 | 23.1 | 24 | 24.9 | 25.7 | 26.4 | 27.5 | 28.6
x2 = 0.2306 | 33.4 | 34.7 | 35.8 | 37.2 | 38.1 | 39.2 | 40.1 | 40.9 | 41.9 | 42.8
x2 = 0.3103 | 39.9 | 40.9 | 42.4 | 43.4 | 45 | 46.2 | 47.9 | 49.2 | 50.6 | 52.4
x2 = 0.4116 | 53.3 | 56.1 | 58.5 | 60.7 | 63 | 64.6 | 66.3 | 67.6 | 68.7 | 69.7
x2 = 0.5454 | 54.6 | 56.3 | 57.9 | 59.9 | 61.7 | 63.6 | 65.3 | 66.6 | 67.9 | 68.7
x2 = 0.7292 | 48.8 | 50.6 | 52.6 | 54.6 | 56.6 | 58.2 | 60.2 | 61.6 | 63.1 | 64

FC(F)(F)c1cccnc1Cl + CCOC(C)=O + CCCCO
solubility (g/100 g solution)
Settings | 263.15 K | 268.15 K | 273.15 K | 278.15 K | 283.15 K | 288.15 K | 293.15 K | 298.15 K | 303.15 K
x2 = 0.2518 | 27.4 | 32.6 | 37.9 | 43.8 | 50.9 | 57.7 | 64.8 | 71.6 | 77.6
x2 = 0.4023 | 33.5 | 38.3 | 42.5 | 49.6 | 54.8 | 61.4 | 68 | 74.3 | 80.5
x2 = 0.5999 | 37.2 | 42.5 | 47.4 | 53.5 | 60.2 | 66.6 | 72.6 | 78.8 | 84.3
x2 = 0.7998 | 42.4 | 47.7 | 52.6 | 59 | 64.3 | 70.8 | 76.8 | 82.4 | 87.4

CC1CCC2C(C)C(OC(=O)CCC(=O)O)OC3OC4(C)CCC1C32OO4 (stereo unspecified) + CO + O
solubility (g/100 g solution)
Settings | 278.15 K | 283.15 K | 288.15 K | 293.15 K | 298.15 K | 303.15 K | 308.15 K | 313.15 K | 318.15 K
x2 = 0.05887 | 0.112 | 0.144 | 0.181 | 0.228 | 0.276 | 0.346 | 0.424 | 0.514 | 0.625
x2 = 0.1235 | 0.366 | 0.464 | 0.566 | 0.693 | 0.82 | 0.997 | 1.19 | 1.41 | 1.67
x2 = 0.1941 | 0.818 | 0.996 | 1.2 | 1.44 | 1.67 | 1.99 | 2.35 | 2.73 | 3.17
x2 = 0.2725 | 1.42 | 1.69 | 2 | 2.36 | 2.71 | 3.17 | 3.68 | 4.22 | 4.83
x2 = 0.36 | 2.09 | 2.46 | 2.87 | 3.34 | 3.8 | 4.37 | 5.01 | 5.65 | 6.39
x2 = 0.4579 | 2.79 | 3.23 | 3.73 | 4.29 | 4.84 | 5.49 | 6.23 | 6.99 | 7.79
x2 = 0.5666 | 3.54 | 4 | 4.58 | 5.22 | 5.83 | 6.54 | 7.36 | 8.18 | 9.06
x2 = 0.6924 | 4.36 | 4.87 | 5.46 | 6.22 | 6.9 | 7.65 | 8.52 | 9.37 | 10.3
x2 = 0.8362 | 5.15 | 5.63 | 6.33 | 7.1 | 7.82 | 8.58 | 9.48 | 10.4 | 11.2

CCOc1ccccc1C(N)=O + CO + CC#N
solubility (g/100 g solution)
Settings | x2 = 0.1 | x2 = 0.2 | x2 = 0.3 | x2 = 0.4 | x2 = 0.5 | x2 = 0.6 | x2 = 0.7 | x2 = 0.8 | x2 = 0.9
293.15 K | 3.86 | 5.1 | 6.26 | 7.41 | 8.25 | 8.88 | 8.99 | 8.83 | 8.26
298.15 K | 4.9 | 6.33 | 7.81 | 9.11 | 10.1 | 11 | 11.1 | 10.7 | 10.1
303.15 K | 6.47 | 8.36 | 10.2 | 11.5 | 12.8 | 13.6 | 13.7 | 13.4 | 12.6
308.15 K | 8.43 | 10.8 | 12.9 | 14.4 | 15.6 | 16.5 | 16.4 | 16.3 | 15.1
313.15 K | 10.8 | 13.5 | 16 | 18.1 | 19.3 | 20.4 | 20.4 | 19.8 | 18.5
318.15 K | 13.7 | 16.8 | 19.7 | 21.9 | 23.4 | 24.4 | 24.5 | 24 | 22.7
323.15 K | 17.3 | 21 | 24 | 26.4 | 28.3 | 29.2 | 29.3 | 28.5 | 27.1
